From PMC3778407, “Topochemical control of the photodimerization of aromatic compounds by γ-cyclodextrin thioethers in aqueous solution” (Beilstein Journal of Organic Chemistry, 2013)
In brackets after ≈: the same amount, converted by molar mass. Where two headings read alike, the source gives them in different places.

Assays:
[1] = cited from earlier work
[2] = Aqueous solubility of guests and solubilization by γ-CD thioethers; format: physicochemical; conditions: read-out: [COU]0 solubility of COU
Description: (§1) Because the concentration of the free guest [G]free is determined by two coupled thermodynamic equilibria (Equation 1). The 2-phase solubility equilibrium is expressed by Equation 2 and the equilibrium of complexation by the CD host is formulated in Equation 3. The guest dissolves until the concentration of free guest is equal to the solubility of the guest, [G]0 = [G]free. Consequently, the lower the solubility of the guest in water, the lower the fraction of uncomplexed guests. The lower the concentration of the free guest, the lower the contribution of undesirable and non-specific photodimerization to the total quantum yield, according to Equation 4. Consequently, lowering the aqueous solubility of COU by the addition of salt, taking advantage of the so-called “salting-out effect” [46] appeared to be a plausible way to enhance the reaction selectivity of the syn-HH dimer.
(§2) Photoreaction procedures: Aqueous solutions of the native CDs or γ-CD thioethers (25 mL, 6.0 mM) were added into glass vials containing excess amounts of the guest molecules. To evaluate the salting-out effect on the photo-product distribution of COU, different amounts of sodium sulfate were added to the vials to obtain the desired final salt concentration (Na2SO4 concentration: 0, 0.5, 1.0, and 1.5 M). Sample solutions were thoroughly degassed using sonication. The vials were tightly sealed, protected from light, and magnetically stirred at room temperature. After 72 h, the resulting suspensions were filtered through syringe filters. The concentrations of the reactants in the CD solutions were determined from the UV–vis extinction coefficients at the absorption maxima.

[3] = parameters: method as in PMID 21739610; conditions: K/10^9 [M^−2]; host/guest 1:2; cited from earlier work
[4] = 1:2 (host/guest) binding constant of COU in γ-CD thioether 2 from solubility measurements
Description: as §1
Both effects based on the salt concentration led to a significant reduction in the contribution of the photodimerization of free COU to the total quantum yield Φ in Equation 4. Taking into account the molar fraction of the formation of syn-HH in water [drawing 5] from Table 3 and in the complex [drawing 6] , and assuming the quantum yield for the complex as Φcomplex = 19%, the total molar fraction [drawing 7] was calculated according to Equation 5, which was derived from Equation 4. The concentration of complexed COU, [COU]C, was determined as the increase in the solubility of COU upon the addition of the host. The calculated total quantum yields and molar fractions of the syn-HH isomer, listed in Table 5, are in good agreement with the measured values, listed in Table 4. It also shoes, that the binding constant K, calculated according to the law of mass action for the 1:2 (host/guest) complex, tremendously increases with the salt concentration leading to a strong increase of the complexed portion of COU. In contrast to the previous ANT system, the quantum yield of COU photodimerization increases with the binding const K, because K is much lower for COU than for ANT so that contribution of free COU is not negligible.
as §2, with “The vials were tightly sealed, protected from light, and magnetically stirred at room temperature. After 72 h, the resulting suspensions were filtered through syringe filters.” left out

[5] = parameters: method as in PMID 21739610; conditions: K/10^6 M^−2; 1:2 host/guest; cited from earlier work

SMILES: c1ccc2cc3ccccc3cc2c1 [ANT, anthracene]
- solubility of free ANT ([1]; water): 0.0004 mM

SMILES: O=c1ccc2ccccc2o1 [COU, coumarin]
- solubility at 72 h ([2]; water with Na2SO4, thermodynamic from solid, [Na2SO4] 0.5 M): 8.5 mM (≈ 1240 µg/mL)
- solubility at 72 h ([2]; water with Na2SO4, thermodynamic from solid, [Na2SO4] 1.0 M): 4.7 mM (≈ 687 µg/mL)
- solubility at 72 h ([2]; water with Na2SO4, thermodynamic from solid, [Na2SO4] 1.5 M): 2.6 mM (≈ 380 µg/mL)
- solubility at 72 h ([2]; water, thermodynamic from solid, [Na2SO4] 0.0 M): 15.2 mM (≈ 2220 µg/mL)
- aqueous solubility ([1]; water): 15 mM (≈ 2190 µg/mL)

SMILES: NCCSC[C@H]1O[C@@H]2O[C@H]3[C@H](O)[C@@H](O)[C@@H](O[C@H]4[C@H](O)[C@@H](O)[C@@H](O[C@H]5[C@H](O)[C@@H](O)[C@@H](O[C@H]6[C@H](O)[C@@H](O)[C@@H](O[C@H]7[C@H](O)[C@@H](O)[C@@H](O[C@H]8[C@H](O)[C@@H](O)[C@@H](O[C@H]9[C@H](O)[C@@H](O)[C@@H](O[C@H]1[C@H](O)[C@H]2O)O[C@@H]9CSCCN)O[C@@H]8CSCCN)O[C@@H]7CSCCN)O[C@@H]6CSCCN)O[C@@H]5CSCCN)O[C@@H]4CSCCN)O[C@@H]3CSCCN [Host 1]
- highest concentration of ANT achieved, [ANT] ([1]; 6 mM solution of host in water): 0.04 mM
- 1:2 binding constant K of ANT [3]: 22.8 10^9 M^−2

SMILES: O=C(O)CSC[C@H]1O[C@@H]2O[C@H]3[C@H](O)[C@@H](O)[C@@H](O[C@H]4[C@H](O)[C@@H](O)[C@@H](O[C@H]5[C@H](O)[C@@H](O)[C@@H](O[C@H]6[C@H](O)[C@@H](O)[C@@H](O[C@H]7[C@H](O)[C@@H](O)[C@@H](O[C@H]8[C@H](O)[C@@H](O)[C@@H](O[C@H]9[C@H](O)[C@@H](O)[C@@H](O[C@H]1[C@H](O)[C@H]2O)O[C@@H]9CSCC(=O)O)O[C@@H]8CSCC(=O)O)O[C@@H]7CSCC(=O)O)O[C@@H]6CSCC(=O)O)O[C@@H]5CSCC(=O)O)O[C@@H]4CSCC(=O)O)O[C@@H]3CSCC(=O)O [Host 2]
- binding constant K of COU complexed in 2 ([4]; [Na2SO4] 0.0 M, 1:2 host/guest, law of mass action, from solubility measurements): 2 10^3 M^−2
- binding constant K of COU complexed in 2 ([4]; [Na2SO4] 0.5 M): 30 10^3 M^−2
- binding constant K of COU complexed in 2 ([4]; [Na2SO4] 1.0 M): 97 10^3 M^−2
- binding constant K of COU complexed in 2 ([4]; [Na2SO4] 1.5 M): 1000 10^3 M^−2
- 1:2 binding constant K of ANT [3]: 7.7 10^9 M^−2

SMILES: O=S(=O)(O)CCSC[C@H]1O[C@@H]2O[C@H]3[C@H](O)[C@@H](O)[C@@H](O[C@H]4[C@H](O)[C@@H](O)[C@@H](O[C@H]5[C@H](O)[C@@H](O)[C@@H](O[C@H]6[C@H](O)[C@@H](O)[C@@H](O[C@H]7[C@H](O)[C@@H](O)[C@@H](O[C@H]8[C@H](O)[C@@H](O)[C@@H](O[C@H]9[C@H](O)[C@@H](O)[C@@H](O[C@H]1[C@H](O)[C@H]2O)O[C@@H]9CSCCS(=O)(=O)O)O[C@@H]8CSCCS(=O)(=O)O)O[C@@H]7CSCCS(=O)(=O)O)O[C@@H]6CSCCS(=O)(=O)O)O[C@@H]5CSCCS(=O)(=O)O)O[C@@H]4CSCCS(=O)(=O)O)O[C@@H]3CSCCS(=O)(=O)O [Host 3]
- binding constant K of ACE [5]: 37 10^6 M^−2
- 1:2 binding constant K of ANT [3]: 6.8 10^9 M^−2

SMILES: CC(SC[C@H]1O[C@@H]2O[C@H]3[C@H](O)[C@@H](O)[C@@H](O[C@H]4[C@H](O)[C@@H](O)[C@@H](O[C@H]5[C@H](O)[C@@H](O)[C@@H](O[C@H]6[C@H](O)[C@@H](O)[C@@H](O[C@H]7[C@H](O)[C@@H](O)[C@@H](O[C@H]8[C@H](O)[C@@H](O)[C@@H](O[C@H]9[C@H](O)[C@@H](O)[C@@H](O[C@H]1[C@H](O)[C@H]2O)O[C@@H]9CSC(C)C(=O)O)O[C@@H]8CSC(C)C(=O)O)O[C@@H]7CSC(C)C(=O)O)O[C@@H]6CSC(C)C(=O)O)O[C@@H]5CSC(C)C(=O)O)O[C@@H]4CSC(C)C(=O)O)O[C@@H]3CSC(C)C(=O)O)C(=O)O (some centres unmarked) [Host 4]
- 1:2 binding constant K of ANT [3]: 3.4 10^9 M^−2

SMILES: OCC(O)CSC[C@H]1O[C@@H]2O[C@H]3[C@H](O)[C@@H](O)[C@@H](O[C@H]4[C@H](O)[C@@H](O)[C@@H](O[C@H]5[C@H](O)[C@@H](O)[C@@H](O[C@H]6[C@H](O)[C@@H](O)[C@@H](O[C@H]7[C@H](O)[C@@H](O)[C@@H](O[C@H]8[C@H](O)[C@@H](O)[C@@H](O[C@H]9[C@H](O)[C@@H](O)[C@@H](O[C@H]1[C@H](O)[C@H]2O)O[C@@H]9CSCC(O)CO)O[C@@H]8CSCC(O)CO)O[C@@H]7CSCC(O)CO)O[C@@H]6CSCC(O)CO)O[C@@H]5CSCC(O)CO)O[C@@H]4CSCC(O)CO)O[C@@H]3CSCC(O)CO (some centres unmarked) [Host 5]
- 1:2 binding constant K of ANT [3]: 3.7 10^9 M^−2

SMILES: O=C(O)CCSC[C@H]1O[C@@H]2O[C@H]3[C@H](O)[C@@H](O)[C@@H](O[C@H]4[C@H](O)[C@@H](O)[C@@H](O[C@H]5[C@H](O)[C@@H](O)[C@@H](O[C@H]6[C@H](O)[C@@H](O)[C@@H](O[C@H]7[C@H](O)[C@@H](O)[C@@H](O[C@H]8[C@H](O)[C@@H](O)[C@@H](O[C@H]9[C@H](O)[C@@H](O)[C@@H](O[C@H]1[C@H](O)[C@H]2O)O[C@@H]9CSCCC(=O)O)O[C@@H]8CSCCC(=O)O)O[C@@H]7CSCCC(=O)O)O[C@@H]6CSCCC(=O)O)O[C@@H]5CSCCC(=O)O)O[C@@H]4CSCCC(=O)O)O[C@@H]3CSCCC(=O)O [Host 6]
- binding constant K of ACE [5]: 27 10^6 M^−2
- 1:2 binding constant K of ANT [3]: 6.5 10^9 M^−2

SMILES: COCCOCCOCCSC[C@H]1O[C@@H]2O[C@H]3[C@H](O)[C@@H](O)[C@@H](O[C@H]4[C@H](O)[C@@H](O)[C@@H](O[C@H]5[C@H](O)[C@@H](O)[C@@H](O[C@H]6[C@H](O)[C@@H](O)[C@@H](O[C@H]7[C@H](O)[C@@H](O)[C@@H](O[C@H]8[C@H](O)[C@@H](O)[C@@H](O[C@H]9[C@H](O)[C@@H](O)[C@@H](O[C@H]1[C@H](O)[C@H]2O)O[C@@H]9CSCCOCCOCCOC)O[C@@H]8CSCCOCCOCCOC)O[C@@H]7CSCCOCCOCCOC)O[C@@H]6CSCCOCCOCCOC)O[C@@H]5CSCCOCCOCCOC)O[C@@H]4CSCCOCCOCCOC)O[C@@H]3CSCCOCCOCCOC [Host 7]
- 1:2 binding constant K of ANT [3]: 7.7 10^9 M^−2
